# Measurements published in paper PMC8362001 (Angewandte Chemie (International Ed. in English), 2021).
# Columns and labels:
# [1] = Hydrolysis of the P−N bond under acidic conditions; format: physicochemical; details: slightly acidic conditions (pH≤3)
# [2] = biological target: eGFP (C70M S147C) (Aequorea victoria, UniProt P42212, C70M/F64L/H231L/S147C/S65T); assay: Second-order rate constant of the reaction with eGFP, intact protein MS; details: one equivalent of eGFP (C70M S147C), Tris buffer pH 8.3, 90 μM, room temperature, eGFP C70M as internal standard, triplicate
SMILES,Hydrolytic stability of the P−N bond [1],second‐order rate constant [2]
C#CP(=O)(C#C)N(CC)CC [II],rapid hydrolysis of the P−N bond,
C#CCCOP(=O)(C#C)C#C [compound 2],,approximately 0.47 M^−1 s^−1
